Measured values from patent US12070445B2, “System and assay for monitoring production/release of membrane-lytic toxins in bacteria and compounds for modulating same” (priority 2021, dated 2024).
“Also recorded” adds a separate entry of the source.

What was measured:
Assay type in all cases: cell-based
[1] = system: WT P. aeruginosa (PAO1-PGSC); assay: Microtiter plate (96-well) vesicle lysis assay with WT P. aeruginosa; conditions: 10 μM OdDHL and PQS, 1 mM BHL, 200 μM 9
Experimental: (§1) Compound handling and preparation. OdDHL and BHL (Hodgkinson et al., 2011), S. aureus AIP and peptide derivatives 1-5 (Tal-Gan et al., 2013, Tal-Gan et al., 2016, Vasquez and Blackwell, 2019), and compounds 7-9 (Welsh and Blackwell, 2016a, Boursier et al., 2018, Manson et al., 2020) were synthesized using previously described methods. PQS and compound 6 were purchased from Millipore Sigma and AK Scientific respectively. Compounds were stored dry at −20° C. until needed and then dissolved in DMSO. DMSO stock solutions were prepared at concentrations that varied with compound potency and apparent solubility. Final in-well compound concentrations for 96-well vesicle lysis assays, unless noted otherwise, were: 10 μM for AIP, OdDHL, and PQS; 1 mM for BHL; 100 nM for 1-4; 10 μM for 5; 20 μM for 6; 100 μM for 7 and 8; and 200 μM for 9.
(§2) Production of phospholipid vesicles with encapsulated calcein. Large unilamellar vesicles (LUVs) were produced by adapting a freeze-thaw and vesicle extrusion procedure (Mayer et al., 1986). Briefly, stock solutions of phospholipids (DOPC, DPPC, DPPE, or cholesterol) in chloroform were mixed to the desired lipid compositions (70 mol % DOPC/30 mol % cholesterol for S. aureus vesicles or 68 mol % DPPC, 30 mol % cholesterol, 2 mol % DPPE for P. aeruginosa vesicles), and the chloroform was removed using an N2 stream or rotary evaporation followed by drying for at least one hour under vacuum. Self-quenching solutions of calcein were prepared by combining calcein and PBS or a specially prepared calcein buffer (1 mM EDTA, 10 mM Trisbase, and 100 mM NaCl; pH 8) to a calcein concentration of […]. The resulting solutions were titrated with 10 M aqueous NaOH until all calcein was dissolved and the solution reached pH 7.4 or pH 8 for PBS and the calcein buffer, respectively. The resulting calcein solutions were added to the dried phospholipid films (PBS for S. aureus formulations and the calcein buffer for the P. aeruginosa formulations) for a final lipid concentration of 5 mg/mL. The resulting lipid solutions were vortexed vigorously and briefly sonicated in a bath sonicator to form a turbid vesicle suspension. The vesicle suspensions were then freeze-thawed five times by alternately immersing them into an iPrOH/dry ice bath and a warm water bath (˜60° C.). Vesicles prepared for continuous time-course experiments were passed at least 5 times through a 100 nm polycarbonate filter using a Mini-prep extruder. Vesicles prepared for the high-throughput screen were passed through the filter 3 times. The resulting vesicles were then separated from external, unloaded calcein using a hand-packed Sephadex-G50 size exclusion chromatography column. The concentration of phospholipid in the solution was quantified using ^31P NMR (per the above protocol), and the phospholipid concentration was adjusted to 2 mM for unsaturated lipid solutions and 1 mM for saturated lipid solutions in their respective buffers. The resulting vesicles were characterized by dynamic light scattering and found to have a hydrodynamic diameter of ˜150 nm (FIGS. 3A-3C), which agrees with previous reports describing vesicle production using a similar method (Lapinski et al., 2007).
Microtiter plate vesicle lysis assays. Portions of media (2 or 10 mL) were inoculated with individual bacterial colonies and allowed to shake overnight. […]

agr = agr YFP transcriptional reporter assay (S. aureus AH1677 with pDB59); conditions: Staphylococcus aureus
Experimental: Bacterial strains and culture. All bacteria were grown at 37° C. with 200 rpm shaking unless otherwise specified. S. aureus and P. aeruginosa were grown in BHI medium and LB medium, respectively. S. aureus AH1677 (with an agr-YFP reporter plasmid) and P. aeruginosa PAO1-PGSC (with a plasI-LVAgfp reporter plasmid) were used as QS transcriptional reporters and grown with 10 μg/mL chloramphenicol and 300 μg/mL carbenicillin, respectively. All other strains were grown without supplemental antibiotic. S. aureus RN6390b and P. aeruginosa PAO1-PGSC were used as WT strains in vesicle lysis experiments, while S. aureus RN9222 and P. aeruginosa PAO-JG35 were used as QS mutants. RN9222 was grown without antibiotic as it was not used as a reporter strain (i.e., it served only as QS mutant).
High-throughput screening and follow-up analysis protocols. Test compounds and positive control 1 were delivered in 2.5 nL aliquots of DMSO with an Echo 550 liquid handler (LabCyte Inc.) into black 384-well microtiter plates (Corning). All test compounds were tested at 10 μM; positive control 1 was tested at 250 nM. DMSO was used as a negative control. Overnight cultures (2 mL) of WT S. aureus (RN6390b) were grown at 37° C. with shaking at 200 rpm. These cultures were diluted 1:500 (v/v) in fresh BHI medium, at which point vesicle solutions were added to a final concentration of 1 mM phospholipid (as determined by ^31P NMR analyses). This vesicle-cell mixture was then added to the 384-well microtiter plates with a Multidrop 384 liquid-dispensing robot (Thermo Scientific) for a total volume of 50 μL per well. Plates were incubated statically for ˜24 hr at 37° C., at which point fluorescence (excitation 483, emission 530) and OD600 (absorbance at 600 nm) measurements were made using a CLARIOstarR Plus microtiter plate reader (BMG Labtech) running MARS data analysis software. Scatter plots were generated using the Collaborative Drug Discovery Vault informatics platform. The dose-response experiment using the vesicle lysis assay was performed in a 384-well plate in technical duplicate with compound concentrations of 0.1, 0.25, 0.5, 1, 2.5, 5, 10, and 20 μM. Dose-response curves were generated using variable slope (4 parameter) non-linear regression analysis for compound inhibition using GraphPad Prism software (v. 9). Analysis of the QS modulatory activity of the HTS hits and 6 (savirin) was performed using the S. aureus YFP transcriptional reporter strain. HTS hits were purchased directly from Life Chemicals, Inc. DMSO stock solutions (10 mM) of each compound were prepared and stored at −20° C. Serial dilutions (1:3) were prepared from the stock solutions in DMSO, and 2 μL aliquots of the resulting dilutions were added to the wells of black 96-well microtiter plates (Corning). Overnight cultures of the S. aureus reporter strain (2 mL) were grown at 37° C. with shaking at 200 rpm. Cultures were diluted 1:50 (v/v) into fresh BHI medium, and 198 μL of this diluted culture were added to each well containing compound, for a total volume of 200 μL per well. All plates contained a vehicle control consisting of 2 μL of DMSO and 198 μL of culture and a media control consisting of 200 μL BHI. Plates were incubated for ˜24 hours at 37° C. with shaking at 200 rpm. Fluorescence (excitation 510, emission 544) and OD600 measurements were acquired with a PerkinElmer EnVision microtiter plate reader running Envision Manager software. Background fluorescence from BHI control was subtracted from raw fluorescence reads, OD600 corrected, and finally normalized to vehicle control. Dose-response curves and IC50 values were generated using 3-parameter non-linear regression analysis for compound inhibition using GraphPad Prism software (v. 9). All compounds were tested in technical triplicate with at least 3 biological replicates.

WT S. aureus (RN6390b) = assay: Microtiter plate (96-well) vesicle lysis assay with WT S. aureus; conditions: all compounds at 100 nM, 12 hr
Experimental: as §1, §2
Microtiter plate vesicle lysis assays. Portions of media (2 or 10 mL) were inoculated with individual bacterial colonies and allowed to shake overnight. From these overnight cultures, subcultures were prepared by diluting the cultures 1:50 (v/v) in fresh BHI for S. aureus or 1:100 (v/v) in fresh LB for P. aeruginosa. An aliquot of each subculture (178 μL) was added to 20 μL of vesicle suspension and 2 μL of compound solution (dissolved in DMSO at 100× working concentration) in a clear-bottomed, black 96-well microtiter plate (Corning 3904). For controls, DMSO (vehicle) or Triton X-100 (1% final concentration) was substituted for compound. […]

Molecule | IC50 (agr) [nM] | further results
CCCC(=O)N[C@H]1CCOC1=O [BHL, N-butyryl-Lhomoserine lactone] | – | effect on vesicle lysis / dye leakage (fluorescence over 12 hr) [1]: earlier onset of dye leakage; also recorded: facilitate vesicle lysis
CCCc1cc(C(=O)O)nc2c(-c3ccccc3)c(C)nn12 [Compound 12] | 2580 | –
Cc1nn2c(C3CC3)cc(C(=O)O)nc2c1-c1ccccc1 [Compound 13] | 3350 | –
Cc1nn2c(C3CCC3)cc(C(=O)O)nc2c1-c1ccccc1 [Compound 14] | 980 | –
CCc1cc(C(=O)O)nc2c(-c3ccccc3)c(C)nn12 [Compound 15] | 7670 | –
Cc1nn2c(C3CCCC3)cc(C(=O)O)nc2c1-c1ccccc1 [Compound 16] | 840 | –
Cc1nn2c(C(C)(C)C)cc(C(=O)O)nc2c1-c1ccccc1 [Compound 17] | 480 | –
CCCCCCCCCC(=O)CC(=O)N[C@H]1CCOC1=O [OdDHL, N-(3-oxo-dodecanoyl)-L-homoserine lactone] | – | effect on vesicle lysis / dye leakage (fluorescence over 12 hr) [1]: no observable influence on levels of fluorescence; also recorded: no observable effect
CCCCCCCc1[nH]c2ccccc2c(=O)c1O [PQS, Pseudomonas quinolone signal] | – | effect on vesicle lysis / dye leakage (fluorescence over 12 hr) [1]: no observable influence on levels of fluorescence; also recorded: no observable effect
AIP III D4A amide [Compound 2] | – | calcein leakage with agr inhibitors at equivalent concentration (WT S. aureus (RN6390b)): delayed response
tr. AIP III D2A [Compound 3] | – | calcein leakage with agr inhibitors at equivalent concentration (WT S. aureus (RN6390b)): completely prevent calcein leakage
tr. AIP III D2A amide [Compound 4] | – | calcein leakage with agr inhibitors at equivalent concentration (WT S. aureus (RN6390b)): delayed response
